{"source": "PubChem BioAssay AID2060909", "about": "(Molecular Pharmacology Branch, DTP, NCI, 2025);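 also: spheroids exposed to the agents for 7 days before readout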;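 as to viability, T/C: luminescence viability as percent of DMSO vehicle control wells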", "system": "362531-283-R-J2-PDC complex spheroid viability", "test": "Anticancer human tumor 362531-283-R-J2-PDC patient-derived colon adenocarcinoma cell line growth inhibition [RAS]", "conditions": "for IC50: curve of first compound; for viability, T/C: stronger effect = lower value", "how_it_was_run": "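Multi-cell-type spheroids: tumor cells plus HUVEC endothelial cells and mesenchymal stem cells. RAS-pathway inhibitors were combined with targeted agents, each dosed in half-log steps down from clinical Cmax, or from 10 microM when Cmax was unknown.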", "data": [{"smiles": "CC1(O)CCCC1n1c(=O)c(C(F)F)cc2cnc(NC3CCN(S(C)(=O)=O)CC3)nc21", "note": "(configuration not stated) + CCn1c(-c2cc(N3CCN(C)CC3)cnc2C(C)OC)c2c3cc(ccc31)-c1csc(n1)CC(NC(=O)C1CC1C)C(=O)N1CCCC(N1)C(=O)OCC(C)(C)C2", "values": [{"measurement": "IC50", "setting": "second compound 0.000949 µM", "result": 5.44, "unit": "µM"}, {"measurement": "IC50", "setting": "second compound 0.003 µM", "result": 6.11, "unit": "µM"}, {"measurement": "IC50", "setting": "second compound 0.00949 µM", "result": 8.98, "unit": "µM"}, {"measurement": "IC50", "setting": "second compound 0.03 µM", "result": 5.9, "unit": "µM"}, {"measurement": "IC50", "setting": "second compound 0.0949 µM", "result": "> 10", "unit": "µM"}, {"measurement": "IC50", "setting": "second compound 0.3 µM", "result": "< 0.0316", "unit": "µM"}, {"measurement": "viability, T/C", "setting": "second compound 0.000949 µM, first compound 0.0316 µM", "result": 97.7, "unit": "%"}, {"measurement": "viability, T/C", "setting": "second compound 0.000949 µM, first compound 0.1 µM", "result": 97.5, "unit": "%"}, {"measurement": "viability, T/C", "setting": "second compound 0.000949 µM, first compound 0.316 µM", "result": 98, "unit": "%"}, {"measurement": "viability, T/C", "setting": "second compound 0.000949 µM, first compound 1 µM", "result": 79.5, "unit": "%"}, {"measurement": "viability, T/C", "setting": "second compound 0.000949 µM, first compound 3.16 µM", "result": 57.6, "unit": "%"}, {"measurement": "viability, T/C", "setting": "second compound 0.000949 µM, first compound 10 µM", "result": 42.2, "unit": "%"}, {"measurement": "viability, T/C", "setting": "second compound 0.003 µM, first compound 0.0316 µM", "result": 109, "unit": "%"}, {"measurement": "viability, T/C", "setting": "second compound 0.003 µM, first compound 0.1 µM", "result": 112, "unit": "%"}, {"measurement": "viability, T/C", "setting": "second compound 0.003 µM, first compound 0.316 µM", "result": 97.4, "unit": "%"}, {"measurement": "viability, T/C", "setting": "second compound 0.003 µM, first compound 1 µM", "result": 76.9, "unit": "%"}, {"measurement": "viability, T/C", "setting": "second compound 0.003 µM, first compound 3.16 µM", "result": 61.5, "unit": "%"}, {"measurement": "viability, T/C", "setting": "second compound 0.003 µM, first compound 10 µM", "result": 42.4, "unit": "%"}, {"measurement": "viability, T/C", "setting": "second compound 0.00949 µM, first compound 0.0316 µM", "result": 94.6, "unit": "%"}, {"measurement": "viability, T/C", "setting": "second compound 0.00949 µM, first compound 0.1 µM", "result": 111, "unit": "%"}, {"measurement": "viability, T/C", "setting": "second compound 0.00949 µM, first compound 0.316 µM", "result": 108, "unit": "%"}, {"measurement": "viability, T/C", "setting": "second compound 0.00949 µM, first compound 1 µM", "result": 83.5, "unit": "%"}, {"measurement": "viability, T/C", "setting": "second compound 0.00949 µM, first compound 3.16 µM", "result": 65.5, "unit": "%"}, {"measurement": "viability, T/C", "setting": "second compound 0.00949 µM, first compound 10 µM", "result": 47.5, "unit": "%"}, {"measurement": "viability, T/C", "setting": "second compound 0.03 µM, first compound 0.0316 µM", "result": 99.2, "unit": "%"}, {"measurement": "viability, T/C", "setting": "second compound 0.03 µM, first compound 0.1 µM", "result": 99.1, "unit": "%"}, {"measurement": "viability, T/C", "setting": "second compound 0.03 µM, first compound 0.316 µM", "result": 89.4, "unit": "%"}, {"measurement": "viability, T/C", "setting": "second compound 0.03 µM, first compound 1 µM", "result": 87, "unit": "%"}, {"measurement": "viability, T/C", "setting": "second compound 0.03 µM, first compound 3.16 µM", "result": 69.2, "unit": "%"}, {"measurement": "viability, T/C", "setting": "second compound 0.03 µM, first compound 10 µM", "result": 33.9, "unit": "%"}, {"measurement": "viability, T/C", "setting": "second compound 0.0949 µM, first compound 0.0316 µM", "result": 80.7, "unit": "%"}, {"measurement": "viability, T/C", "setting": "second compound 0.0949 µM, first compound 0.1 µM", "result": 79.2, "unit": "%"}, {"measurement": "viability, T/C", "setting": "second compound 0.0949 µM, first compound 0.316 µM", "result": 78.6, "unit": "%"}, {"measurement": "viability, T/C", "setting": "second compound 0.0949 µM, first compound 1 µM", "result": 68.2, "unit": "%"}, {"measurement": "viability, T/C", "setting": "second compound 0.0949 µM, first compound 3.16 µM", "result": 56.4, "unit": "%"}, {"measurement": "viability, T/C", "setting": "second compound 0.0949 µM, first compound 10 µM", "result": 61, "unit": "%"}, {"measurement": "viability, T/C", "setting": "second compound 0.3 µM, first compound 0.0316 µM", "result": 37.4, "unit": "%"}, {"measurement": "viability, T/C", "setting": "second compound 0.3 µM, first compound 0.1 µM", "result": 50.2, "unit": "%"}, {"measurement": "viability, T/C", "setting": "second compound 0.3 µM, first compound 0.316 µM", "result": 37.7, "unit": "%"}, {"measurement": "viability, T/C", "setting": "second compound 0.3 µM, first compound 1 µM", "result": 55.8, "unit": "%"}, {"measurement": "viability, T/C", "setting": "second compound 0.3 µM, first compound 3.16 µM", "result": 45.9, "unit": "%"}, {"measurement": "viability, T/C", "setting": "second compound 0.3 µM, first compound 10 µM", "result": 7.05, "unit": "%"}]}]}
